According to patent US20250228762A1, “COSMETIC COMPOSITION COMPRISING LUTEIN AND A POLYSACCHARIDE” (ALGAKTIV, S.L., priority 2022, published 2025):

Experiments:
Type in all cases: cell-based
RARalpha = assay: RAR alpha agonist assay (SelectScreen GeneBLAzer, UAS-bla HEK 293T)
Procedure: (§1) An agonist assay for RAR was performed by SelectScreen® Cell-Based Nuclear Receptor Profiling Service of Life Technologies. In this assay, an engineered cell line (UAS-bla HEK 293T) expressing RARalpha, RARbeta or RAR gamma is used to test the action of lutein. GeneBLAzer® technology, based on mammalian-optimized Beta-lactamase reporter gene (bla) combined with a FRET-enabled substrate, provides the assay with a sensitive detection method. […] The plate is incubated for 16-24 hours at 37° C./5% CO2 in a humidified incubator. 8 μL of 1 μM Substrate Loading Solution is added to each well and the plate is incubated for 2 hours at room temperature. The plate is read on a fluorescence plate reader.

RARbeta = assay: RAR beta agonist assay (SelectScreen GeneBLAzer, UAS-bla HEK 293T)
Procedure: as §1

RAR gamma = RAR gamma agonist assay (SelectScreen GeneBLAzer, UAS-bla HEK 293T)
Procedure: as §1

[1] = at any concentration below 3.2 μM

## CC1=C(/C=C/C(C)=C/C=C/C(C)=C/C(=O)O)C(C)(C)CCC1 [ATRA, reference compound]
RARalpha; RAR-alpha-UAS-bla HEK 293T, FIG. 2, read-out: EC50 (control agonist, RAR alpha)
  EC50: […]
RARbeta; RAR-beta-UAS-bla HEK 293T, FIG. 3, read-out: EC50 (control agonist, RAR beta)
  EC50: 0.46 nM
RAR gamma; RAR-gamma-UAS-bla HEK 293T, FIG. 4, read-out: EC50 (control agonist, RAR gamma)
  EC50: 0.131 nM

## CC1=C[C@H](O)CC(C)(C)[C@H]1/C=C/C(C)=C/C=C/C(C)=C/C=C/C=C(C)/C=C/C=C(C)/C=C/C1=C(C)C[C@@H](O)CC1(C)C [Lutein, (1R,4R)-4-{(1E,3E,5E,7E,9E,11E,13E,15E,17E)-18-[(4R)-4-Hydroxy-2,6,6-trimethylcyclohex-1-en-1-yl]-3,7,12,16-tetramethyloctadeca-1,3,5,7,9,11,13,15,17-nonaen-1-yl}-3,5,5-trimethylcyclohex-2-en-1-ol]
RARalpha; [1]
  agonist effect on RAR alpha: No agonist effect
RARbeta; RAR-beta-UAS-bla HEK 293T
  concentrations at which a specific RAR-beta partial agonist effect could be measured: above 100 nm
RARbeta; at 3.16 μM
  RAR-beta activation: ~40%
RAR gamma; [1]
  agonist effect on RAR gamma: No agonist effect
